Assay results from patent US7211587B2, “Quinoline derivatives and quinazoline derivatives having azolyl group” (Kirin Beer Kabushiki Kaisha, priority 2001, dated 2007).

target: T1, human KDR (Homo sapiens, UniProt P35968); assay: Inhibitory activity against KDR phosphorylation by ELISA (VEGF-stimulated NIH 3T3 cells expressing human KDR); type: cell-based; details: VEGF 100 ng/ml, compound 1 hr, read-out: IC50 (inhibition of KDR phosphorylation)
T1 construct: expressed in transfected cells; host or cells: NIH 3T3 cells (mouse fibroblasts) stably expressing human KDR
T1 sequence (P35968 20-1356): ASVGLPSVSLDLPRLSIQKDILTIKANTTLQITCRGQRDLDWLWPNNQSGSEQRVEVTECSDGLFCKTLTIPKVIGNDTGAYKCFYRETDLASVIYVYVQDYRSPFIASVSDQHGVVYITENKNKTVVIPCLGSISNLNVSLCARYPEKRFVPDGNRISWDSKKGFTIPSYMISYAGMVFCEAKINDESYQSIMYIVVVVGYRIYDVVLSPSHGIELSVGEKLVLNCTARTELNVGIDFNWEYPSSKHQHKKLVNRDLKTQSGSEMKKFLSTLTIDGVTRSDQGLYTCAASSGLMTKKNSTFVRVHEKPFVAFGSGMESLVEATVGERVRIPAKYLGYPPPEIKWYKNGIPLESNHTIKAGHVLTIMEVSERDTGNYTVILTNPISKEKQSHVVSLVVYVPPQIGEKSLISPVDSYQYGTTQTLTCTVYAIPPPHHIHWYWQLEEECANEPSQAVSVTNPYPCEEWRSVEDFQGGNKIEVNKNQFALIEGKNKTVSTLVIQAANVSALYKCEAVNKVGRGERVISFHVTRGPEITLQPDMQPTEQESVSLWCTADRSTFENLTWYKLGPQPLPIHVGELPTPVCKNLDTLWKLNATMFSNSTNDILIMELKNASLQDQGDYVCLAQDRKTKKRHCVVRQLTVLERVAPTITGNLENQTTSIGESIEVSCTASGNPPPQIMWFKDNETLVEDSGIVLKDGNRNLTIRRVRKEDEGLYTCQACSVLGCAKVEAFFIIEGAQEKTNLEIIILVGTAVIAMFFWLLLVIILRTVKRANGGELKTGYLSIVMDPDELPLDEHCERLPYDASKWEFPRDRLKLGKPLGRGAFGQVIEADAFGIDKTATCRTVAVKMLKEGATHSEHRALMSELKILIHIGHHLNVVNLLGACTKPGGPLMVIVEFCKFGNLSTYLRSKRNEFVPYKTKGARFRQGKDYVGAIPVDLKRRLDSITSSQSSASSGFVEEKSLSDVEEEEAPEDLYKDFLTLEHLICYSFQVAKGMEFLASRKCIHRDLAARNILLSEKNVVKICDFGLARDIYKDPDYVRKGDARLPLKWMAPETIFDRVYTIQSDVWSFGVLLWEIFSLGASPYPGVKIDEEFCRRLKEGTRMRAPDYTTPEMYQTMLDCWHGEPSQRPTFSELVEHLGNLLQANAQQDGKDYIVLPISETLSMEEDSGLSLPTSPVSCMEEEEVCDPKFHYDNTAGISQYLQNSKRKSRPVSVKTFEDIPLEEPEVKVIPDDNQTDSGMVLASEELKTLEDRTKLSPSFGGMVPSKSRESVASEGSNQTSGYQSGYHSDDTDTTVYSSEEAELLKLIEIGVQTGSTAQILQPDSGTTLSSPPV
Method: The harvested cells were inoculated into wells of a collagen-type one-coat 96-well flat-bottom plate, each containing the same medium, in an amount of 1.5×10^4 per well, followed by cultivation at 37° C. overnight. The medium was then replaced by a DMEM medium containing 0.1% fetal calf serum. A solution of a test compound in dimethyl sulfoxide was added to each well, and the cultivation was continued at 37° C. for additional one hr. A human recombinant vascular endothelial growth factor (hereinafter abbreviated to “VEGF”) was added to a final concentration of 100 ng/ml, and the stimulation of cells was carried out at 37° C. for 2 min. The medium was removed, the cells were washed with phosphate buffered saline (pH 7.4), and 50 μl of a solubilization buffer (20 mM HEPES (pH 7.4), 150 mM NaCl, 0.2% Triton X-100, 10% glycerol, 5 mM sodium orthovanadylate, 5 mM disodium ethylenediaminetetraacetate, and 2 mM Na4P2O7) was then added thereto. The mixture was shaken at 4° C. for 2 hr to prepare a cell extract.
Separately, phosphate buffered saline (50 μl, pH 7.4) containing 5 μg/ml of an anti-phospho-tyrosine antibody (PY20; purchased from Transduction Laboratories) was added to a microplate for ELISA (Maxisorp; purchased from NUNC), followed by standing at 4° C. overnight to form a solid phase on the wells. After washing of the plate, 300 μl of a blocking solution was added, followed by standing at room temperature for 2 hr to perform blocking. After washing, the whole quantity of the cell extract was transferred to the wells, and the plate was then allowed to stand at 4° C. overnight. After washing, an anti-KDR antibody (purchased from Santa Cruz) was allowed to react at room temperature for one hr, and, after washing, a peroxidase-labeled anti-rabbit Ig antibody (purchased from Amersham) was allowed to react at room temperature for one hr. After washing, a chromophoric substrate for peroxidase (purchased from Sumitomo Bakelite Co., Ltd.) was added thereto to initiate a reaction. After a suitable level of color development, a reaction termination solution was added to stop the reaction, and the absorbance at 450 nm was measured with a microplate reader. The KDR phosphorylation activity for each well was determined by presuming the absorbance with the addition of VEGF and without the addition of the medicament to be 100% KDR phosphorylation activity and the absorbance without the addition of the medicament and VEGF to be 0% KDR phosphorylation activity.

SMILES	IC50
COc1cc2nccc(Oc3ccc(NC(=O)Nc4ccon4)cc3Cl)c2cc1OC [Ex. 1, N-{3-Chloro-4-[(6,7-dimethoxy-4-quinolyl)oxy]phenyl}-N′-(3-isoxazolyl)urea]	2.3 nM
COc1cc2nccc(Oc3ccc(NC(=O)Nc4cc(C)no4)cc3Cl)c2cc1OC [Ex. 2, N-{3-Chloro-4-[(6,7-dimethoxy-4-quinolyl)oxy]phenyl}-N′-(3-methyl-5-isoxazolyl)urea]	2 nM
COc1cc2ncnc(Oc3ccc(NC(=O)Nc4cc(C)on4)cc3)c2cc1OC [Ex. 10, N-{4-[(6,7-Dimethoxy-4-quinazolinyl)oxy]-phenyl}-N′-(5-methyl-3-isoxazolyl)urea]	3.6 nM
COc1cc2ncnc(Oc3ccc(NC(=O)Nc4cc(C)no4)cc3)c2cc1OC [Ex. 11, N-{4-[(6,7-Dimethoxy-4-quinazolinyl)oxy]-phenyl}-N′-(3-methyl-5-isoxazolyl)urea]	9.3 nM
COc1cc2ncnc(Oc3ccc(NC(=O)Nc4cc(C)on4)c(Cl)c3)c2cc1OC [Ex. 12, N-{2-Chloro-4-[(6,7-dimethoxy-4-quinazolinyl)oxy]phenyl}-N′-(5-methyl-3-isoxazolyl)urea]	< 1 nM
COc1cc2ncnc(Oc3ccc(NC(=O)Nc4cc(C)no4)c(Cl)c3)c2cc1OC [Ex. 13, N-{2-Chloro-4-[(6,7-dimethoxy-4-quinazolinyl)oxy]phenyl}-N′-(3-methyl-5-isoxazolyl)urea]	2.2 nM
COc1cc2ncnc(Oc3ccc(NC(=O)Nc4cc(C)on4)cc3Cl)c2cc1OC [Ex. 14, N-{3-Chloro-4-[(6,7-dimethoxy-4-quinazolinyl)oxy]phenyl}-N′-(5-methyl-3-isoxazolyl)urea]	4.4 nM
COc1cc2ncnc(Oc3ccc(NC(=O)Nc4cc(C)no4)cc3Cl)c2cc1OC [Ex. 15, N-{3-Chloro-4-[(6,7-dimethoxy-4-quinazolinyl)oxy]phenyl}-N′-(3-methyl-5-isoxazolyl)urea]	13.4 nM
COc1cc2ncnc(Oc3ccc(NC(=O)Nc4cc(C)ns4)cc3)c2cc1OC [Ex. 16, N-{4-[(6,7-Dimethoxy-4-quinazolinyl)oxy]-phenyl}-N′-(3-methyl-5-isothiazolyl)urea]	54.9 nM
COc1cc2ncnc(Oc3ccc(NC(=O)Nc4cc(C)ns4)c(Cl)c3)c2cc1OC [Ex. 17, N-{2-Chloro-4-[(6,7-dimethoxy-4-quinazolinyl)oxy]phenyl}-N′-(3-methyl-5-isothiazolyl)-urea]	4.9 nM
COc1cc2ncnc(Oc3ccc(NC(=O)Nc4cc(C)ns4)cc3Cl)c2cc1OC [Ex. 18, N-{3-Chloro-4-[(6,7-dimethoxy-4-quinazolinyl)oxy]phenyl}-N′-(3-methyl-5-isothiazolyl)-urea]	69.7 nM
COc1cc2nccc(Oc3ccc(NC(=O)Nc4ccn[nH]4)cc3Cl)c2cc1OC [Ex. 19, N-{3-Chloro-4-[(6,7-dimethoxy-4-quinolyl)oxy]phenyl}-N′-(1H-5-pyrazolyl)urea]	17.5 nM
COc1cc2nccc(Oc3ccc(NC(=O)Nc4ccn[nH]4)c(F)c3)c2cc1OC [Ex. 20, N-{4-[(6,7-Dimethoxy-4-quinolyl)oxy]-2-fluorophenyl}-N′-(1H-5-pyrazolyl)urea]	4.2 nM
COc1cc2nccc(Oc3ccc(NC(=O)Nc4nc(C)c(C)s4)c(C(F)(F)F)c3)c2cc1OC [Ex. 26, N-[4-[(6,7-Dimethoxy-4-quinolyl)oxy]-2-(trifluoromethyl)phenyl]-N′-(4,5-dimethyl-1,3-thiazol-2-yl)urea]	5 nM
COc1cc2nccc(Oc3ccc(NC(=O)Nc4nc(C(C)(C)C)cs4)c(F)c3)c2cc1OC [Ex. 30, N-[4-(Tert-butyl)-1,3-thiazol-2-yl]-N′-{4-[(6,7-dimethoxy-4-quinolyl)oxy]-2-fluorophenyl}urea]	28.6 nM
CCOC(=O)Cc1csc(NC(=O)Nc2ccc(Oc3ccnc4cc(OC)c(OC)cc34)cc2Cl)n1 [Ex. 31, Ethyl 2-{2-[({2-chloro-4-[(6,7-dimethoxy-4-quinolyl)oxy]anilino}carbonyl)amino]-1,3-thiazol-4-yl}acetate]	33.9 nM
COc1cc2nccc(Oc3ccc(NC(=O)Nc4ncc(Br)s4)c(Cl)c3)c2cc1OC [Ex. 32, N-(5-Bromo-1,3-thiazol-2-yl)-N′-{2-chloro-4-[(6,7-dimethoxy-4-quinolyl)oxy]phenyl}urea]	3.7 nM
COc1cc2nccc(Oc3ccc(NC(=O)Nc4nc(C(C)(C)C)cs4)c(Cl)c3)c2cc1OC [Ex. 33, N-[4-(Tert-butyl)-1,3-thiazol-2-yl]-N′-{2-chloro-4-[(6,7-dimethoxy-4-quinolyl)oxy]phenyl}urea]	21.1 nM
COc1cc2nccc(Oc3ccc(NC(=O)Nc4ncc(Cl)s4)c(Cl)c3)c2cc1OC [Ex. 34, N-{2-Chloro-4-[(6,7-dimethoxy-4-quinolyl)oxy]phenyl}-N′-(5-chloro-1,3-thiazol-2-yl)urea]	2.8 nM
COc1cc2nccc(Oc3ccc(NC(=O)Nc4ncc(Br)s4)c(F)c3)c2cc1OC [Ex. 35, N-(5-Bromo-1,3-thiazol-2-yl)-N′-{4-[(6,7-dimethoxy-4-quinolyl)oxy]-2-fluorophenyl}urea]	1.9 nM
COc1cc2nccc(Oc3ccc(NC(=O)Nc4nc(C)c(C(C)=O)s4)c(F)c3)c2cc1OC [Ex. 36, N-(5-Acetyl-4-methyl-1,3-thiazol-2-yl)-N′-{4-[(6,7-dimethoxy-4-quinolyl)oxy]-2-fluorophenyl}urea]	1.2 nM
COc1cc2nccc(Oc3ccc(NC(=O)Nc4ncc(Cl)s4)c(F)c3)c2cc1OC [Ex. 37, N-(5-Chloro-1,3-thiazol-2-yl)-N′-{4-[(6,7-dimethoxy-4-quinolyl)oxy]-2-fluorophenyl}urea]	1.9 nM
COc1cc2ncnc(Oc3ccc(NC(=O)Nc4nccs4)cc3)c2cc1OC [Ex. 42, N-{4-[(6,7-Dimethoxy-4-quinazolinyl)oxy]-phenyl}-N′-(1,3-thiazol-2-yl)urea]	4.7 nM
COc1cc2ncnc(Oc3ccc(NC(=O)Nc4ncc(C)s4)cc3)c2cc1OC [Ex. 43, N-{4-[(6,7-Dimethoxy-4-quinazolinyl)oxy]-phenyl}-N′-(5-methyl-1,3-thiazol-2-yl)urea]	< 1 nM
COc1cc2ncnc(Oc3ccc(NC(=O)Nc4nc(C)cs4)cc3)c2cc1OC [Ex. 44, N-{4-[(6,7-Dimethoxy-4-quinazolinyl)oxy]-phenyl}-N′-(4-methyl-1,3-thiazol-2-yl)urea]	1.1 nM
COc1cc2ncnc(Oc3ccc(NC(=O)Nc4nc(C)c(C)s4)cc3)c2cc1OC [Ex. 45, N-{4-[(6,7-Dimethoxy-4-quinazolinyl)oxy]-phenyl}-N′-(4,5-dimethyl-1,3-thiazol-2-yl)urea]	< 1 nM
COc1cc2ncnc(Oc3ccc(NC(=O)Nc4nccs4)cc3Cl)c2cc1OC [Ex. 46, N-{3-Chloro-4-[(6,7-dimethoxy-4-quinazolinyl)oxy]phenyl}-N′-(1,3-thiazol-2-yl)urea]	7.4 nM
COc1cc2ncnc(Oc3ccc(NC(=O)Nc4ncc(C)s4)cc3Cl)c2cc1OC [Ex. 47, N-{3-Chloro-4-[(6,7-dimethoxy-4-quinazolinyl)oxy]phenyl}-N′-(5-methyl-1,3-thiazol-2-yl)urea]	2.8 nM
COc1cc2ncnc(Oc3ccc(NC(=O)Nc4nc(C)cs4)cc3Cl)c2cc1OC [Ex. 48, N-{3-Chloro-4-[(6,7-dimethoxy-4-quinazolinyl)oxy]phenyl}-N′-(4-methyl-1,3-thiazol-2-yl)urea]	4.4 nM
